The values that follow come from patent US4241052A, “Novel nitrosourea compounds and process for preparing the same” (Tanabe Seiyaku Co., Ltd., priority 1978, dated 1980).

Series [1] deals with tumor cells of lymphoid leukemia L-1210. The following applies: tumor cells implanted intraperitoneally; U.S. Pat. No. 4086451 and Japanese publications; cited from earlier work.
Series [2] relates to leukemic cells. Particulars: Japanese Patent Publication No. 141815/1976; cited from earlier work.
Series [3] deals with Ehrlich ascites carcinoma. Put plainly: Preventive effect against the growth of Ehrlich ascites carcinoma (Method A). It counts as in vivo, mice (ICR, female). Particulars: for minimal effective dose: 168 h, min dose, 100% inhibition, read-out: MED (Minimum Effective Dose). The procedure: (§1) (A) Preventive effect against the growth of Ehrlich ascites tumor
(§2) 10^6 tumor cells of Ehrlich ascites carcinoma were inoculated intraperitoneally into a group of five femal mice (ICR mice, body weight: 19-23 g). A test compound was dissolved in a physiological saline solution and administered intraperitoneally to the mice. The administration of the test compound was began 24 hours after the inoculation of the tumor cells and performed once a day for 5 days. The volume of ascites in the treated mice were measured after 7 days of the experiment.

For series [4], the system named is Leukemia L-1210. Description: Effect on life span of mice implanted with leukemic cells of L-1210 (Method B). It counts as in vivo, mice (BDF1, male). The following applies: 5 days. The procedure: (B) Effect on the life span of mice implanted with leukemic cells of L-1210
10^5 leukemic cells of L-1210 were inoculated intraperitoneally into a group of four male mice (BDF1 mice, body weight: 19-23 g). A test compound was dissolved in a physiological saline solution and administered intraperitoneally to the mice. The administration of the test compound was began 24 hours after the inoculation of the leukemic cells and performed once a day for 5 days. The survival days of the treated mice were observed.

Series [5] can be described thus: Preventive effect against the growth of Ehrlich ascites carcinoma (Method A). Format: in vivo, mice (ICR, female). The following applies: mouse, in vivo, ip; max dose, 100% inhibition without death; doses of the table in mg/kg/day; read-out: MTD (Maximum Tolerated Dose). The protocol:
as §1, §2

Where [6] appears, read: Mus musculus, Ehrlich, ip, doses of the table in mg/kg/day.

Regarding `O=NN(CCCl)C(=O)NC1O[C@H](CO)[C@@H](O)[C@H](O)[C@@H]1O` (stereo partly drawn) [1-(2-chloroethyl)-1-nitroso-3-(D-mannopyranosyl)urea], the “life span of mice implanted with L-1210” value in series [1] is “increase the life span”.
On to `O=NN(CCCl)C(=O)NC1O[C@H](CO)[C@@H](O[C@@H]2O[C@H](CO)[C@H](O)[C@H](O)[C@H]2O)[C@H](O)[C@H]1O` (stereo partly drawn) [1-(2-chloroethyl)-1-nitroso-3-(D-lactosyl)urea], for which the “anti-tumor activity against leukemic cells” value in series [2] was “show anti-tumor activity”.
Take `O=NN(CCCl)C(=O)N[C@@H]1O[C@H](CO)[C@@H](O)[C@H](O)[C@H]1O` [GANU, 1-(2-chloroethyl)-1-nitroso-3-(D-glucopyranosyl)urea, reference compound]: the “life span of mice implanted with L-1210” value in series [1] is recorded as “increase the life span”. Moreover, the Inhibition ratio turned out to be 4.2% in series [3] (0.09 mg/kg/day i.p., 5 days); 79.2% in series [3] (0.19 mg/kg/day i.p., 5 days); 100% in series [3] (0.39 mg/kg/day i.p., 5 days); 100% in series [3] (0.78 mg/kg/day i.p., 5 days); 100% in series [3] (3.12 mg/kg/day i.p., 5 days). The “Toxic (number of mice died/number of mice used)” value in series [3] (25 mg/kg/day i.p., 5 days) is on record as 5/5. Also, in series [3], the “Therapeutic index (MTD/MED)” value came out at 32. For the same molecule, in series [3] (setting [6]), the minimal effective dose turned out to be 0.39 mg/kg/day. Also, in series [3] (max dose, 100% inhibition without death, doses of the table in mg/kg/day, 10080 min), the “MTD (Maximum Tolerated Dose)” value was 12.5.
As to `O=NN(CCCl)C(=O)NC1O[C@H](CO)[C@@H](O[C@H]2O[C@H](CO)[C@@H](O)[C@H](O)[C@H]2O)[C@H](O)[C@H]1O` (stereo partly drawn) [1-(2-chloroethyl)-1-nitroso-3-(D-maltosyl)urea], the “anti-tumor activity against leukemic cells” value in series [2] is reported as “show anti-tumor activity”.
As usually defined, the ILS is the gain in survival time of treated over control animals, in per cent. A lower ILS goes with a small benefit in survival. The term MTD denotes the highest dose tested that stayed within the study's limit of toxicity. As to `O=NN(CCCl)C(=O)N(CC1CC1)C1OC[C@H](O)[C@H](O)[C@H]1O` (stereo partly drawn) [Compound 10, 1-(2-chloroethyl)-1-nitroso-3-cyclopropylmethyl-3-(L-arabinopyranosyl)urea], the results for the “60-day survivors (mice survived/mice used)” value in series [4] (6.25 mg/kg/day i.p.), in series [4] (25 mg/kg/day i.p.) and in series [4] (50 mg/kg/day i.p.) were 0/4, 4/4 and 4/4, respectively. The ILS in series [4] (6.25 mg/kg/day i.p.) is given as 82.2%; in series [4] (25 mg/kg/day i.p.), > 721.9%; in series [4] (50 mg/kg/day i.p.), > 721.9%. In addition, the “Toxic (number of mice died/number of mice used)” value in series [3] (200 mg/kg/day i.p., 5 days) was 5/5. For the same molecule, in series [3], the “Therapeutic index (MTD/MED)” value turned out to be 128. Moreover, the inhibition in vivo at 0.19 mg/kg in series [3] (Mus musculus, Ehrlich, ip, 120 h, 0.19 mg/kg/day i.p., 5 days, read-out: Inhibition ratio) stood at 17.9%. In series [3] (Mus musculus, Ehrlich, ip, 120 h, 0.39 mg/kg/day i.p., 5 days, read-out: Inhibition ratio), the inhibition in vivo at 0.39 mg/kg was found to be 79.5%. Also, the inhibition in vivo at 0.78 mg/kg in series [3] (Mus musculus, Ehrlich, ip, 120 h, 0.78 mg/kg/day i.p., 5 days, read-out: Inhibition ratio) came to 100%. For the same molecule, the inhibition in vivo at 1.56 mg/kg in series [3] (Mus musculus, Ehrlich, ip, 120 h, 1.56 mg/kg/day i.p., 5 days, read-out: Inhibition ratio) came to 100%. Moreover, in series [3] (Mus musculus, Ehrlich, ip, 120 h, 6.25 mg/kg/day i.p., 5 days, read-out: Inhibition ratio), the inhibition in vivo at 6.25 mg/kg came out at 100%. The inhibition in vivo at 25 mg/kg in series [3] (Mus musculus, Ehrlich, ip, 120 h, 25 mg/kg/day i.p., 5 days, read-out: Inhibition ratio) amounted to 100%. Moreover, the inhibition in vivo at 100 mg/kg in series [3] (Mus musculus, Ehrlich, ip, 120 h, 100 mg/kg/day i.p., 5 days, read-out: Inhibition ratio) is 100%. Further, the minimal effective dose in series [3] (setting [6]) was found to be 0.78 mg/kg/day. The MTD at 168 h in series [5] worked out at 100 mg/kg/day.
